From patent publication US8067535B2 (priority 2003, dated 2011)

Assays:
[1] = test system: vaccinia virus-specific CD8^+ CTL lines; format: cell-based, human
[2] = test system: CD8^+ T cells in PBMCs of HLA-A0201-positive donors; format: cell-based, human

Sequence	recognition by CTL line [1]	specific recognition of epitope peptide by CTL line [1]	kinetics of the frequency of epitope-specific CD8^+ T cells: peak [2]	kinetics of the frequency of epitope-specific CD8^+ T cells: persistence [2]
CLTEYILWV [peptide 74A]	recognized	high level of specific recognition	peaked two weeks after primary immunization	still detectable one to three years following primary immunization
KVDDTFYYV [peptide 165]	recognized	high level of specific recognition	peaked two weeks after primary immunization	still detectable one to three years following primary immunization
LLYAHINAL [peptide 029D]	recognized	–	–	–
MPAYIRNTL [peptide B7034]	recognized	–	–	–
TVADVRHCL [peptide B7080]	recognized	–	–	–
